Tested on: P-p38
Test: Western blot, LPS-induced P-p38 in peritoneal macrophages
Assay type: cell-based, mouse
Conditions: 20 μg/mL peptide, 100 ng/mL LPS, 30 min, band density ratio to β-actin
Method: Cells were treated with different concentrations of cecropin-TY1 (0, 5, 10, and 20 μg/mL) in the presence or absence of 100 ng/mL LPS (from E. coli 0111:B4, Sigma-Aldrich, USA). After 30-min incubation, cells were washed twice with ice-cold PBS and lysed with RIPA lysis buffer (Beyotime, China) on ice for 30 min according to our previous method. Protein concentration was quantified by BCA Protein Assay Kit (Thermo, Germany). About 40 μg protein was separated on a 10 % SDS-PAGE gel and transferred to a polyvinylidene difluoride membrane. The membrane was blocked by incubating with 5 % BSA (BD, USA) dissolved in Tris-buffered solution Tween-20 (TBST, 2.42 g/L Trisbase, 8 g/L NaCl, 0.1 % Tween 20, pH 7.6) for 2 h at room temperature. The membrane was then incubated with primary antibodies against ERK, phospho-ERK, p38, phospho-p38, JNK, phospho-JNK, phospho-IκBα, NF-κB p65 and phospho-NF-κB p65 (1:2000, Cell Signaling Technology, USA) and GAPDH/β-actin (1:5000, Santa Cruz Biotechnology, USA) overnight at 4 °C, respectively. After incubation, the immunoblot was washed three times with TBST for 5 min each time, and incubated with secondary antibody (1:5000, Cell Signaling Technology, USA) at room temperature for 1 h. Signals were measured by enhanced chemiluminescence kit in a dark room after washing three times with TBST for 10 min each time (TIANGEN, China).

GWLKKIGKKIERVGQNVRNAAISTLPIAQGAAGVAGALN-NH2 [cecropin-TY1, cecropin antimicrobial peptide from salivary glands of horsefly Tabanus yao, 39 residues, C-terminally amidated, synthesized]
inhibition of LPS-induced P-p38 expression: 46.4%

Reference: paper PMC4619319, “A potent anti-inflammatory peptide from the salivary glands of horsefly” (Parasites & Vectors, 2015)
